Data from paper PMC5829263, “Homoarginine and inhibition of human arginase activity: kinetic characterization and biological relevance” (Scientific Reports, 2018).
Entries after “also recorded” stand apart in the source; their conditions may differ. Where a name gives a salt, the structure may show the parent alone. Read-outs that look alike come from different tables or passages of the source. Each block holds one compound with its values, some of them ahead of it.

How the values were obtained:
[1] = target: T1, recombinant human arginase 1 (Homo sapiens, UniProt P05089); experiment: Arginase 1 inhibition, UPLC-MS measurement of ARG to ORN conversion in HEK293T cell lysate; settings: for arginase 1 inhibitor assessment in words: at the concentrations tested, both ARG concentrations; for remaining activity at 1 µM / remaining activity at 10 µM / remaining activity at 100 µM / remaining activity at 1000 µM / remaining activity at 10000 µM: read-out: % of control activity at the corresponding [Inhibitor] ± SE, arginase 1; for remaining activity at 1 µM / remaining activity at 10 µM / remaining activity at 100 µM / remaining activity at 1000 µM / remaining activity at 10000 µM / % of control activity at the corresponding [Inhibitor] ± SE: mean of two experiments; for remaining activity at 10000 µM: inhibitor 10,000 µM; for % of control activity at the corresponding [Inhibitor] ± SE: arginase 1;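 on all read-outs here: arginase 1–expressing HEK293T lysate at 0.05 mg/mL in pH 7.4 phosphate buffer, inhibitor preincubated 5 min with enzyme, then reaction started by adding ARG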
T1 sequence (P05089 1-322): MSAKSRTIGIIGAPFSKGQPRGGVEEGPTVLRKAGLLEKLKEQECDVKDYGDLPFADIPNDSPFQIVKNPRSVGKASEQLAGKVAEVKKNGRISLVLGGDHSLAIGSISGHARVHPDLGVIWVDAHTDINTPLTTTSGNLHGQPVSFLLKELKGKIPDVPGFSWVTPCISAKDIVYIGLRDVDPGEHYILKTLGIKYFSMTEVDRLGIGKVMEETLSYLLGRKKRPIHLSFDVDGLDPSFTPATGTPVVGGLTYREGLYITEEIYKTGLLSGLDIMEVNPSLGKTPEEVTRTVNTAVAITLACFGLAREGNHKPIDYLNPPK
Protocol: (§1) Following a 5-min pre-equilibration period reactions were initiated by the addition of the cell lysate solution in 0.05 M phosphate buffer to a pre-equilibrated aqueous solution of the substrate (ARG).
(§2) The samples were vortex mixed (20 sec) and cooled in an ice/water bath for 10 min prior to centrifugation (5 min, 18,000 × g, room temperature) to precipitate the proteins. An aliquot of the supernatant layer was diluted with a 7:3 mobile phase A/mobile phase B solution into glass UPLC vial inserts.
(§3) Incubation mixtures comprised of HEK293T cell lysate expressing arginase 1 (0.05 mg/mL) or arginase 2 (0.1 mg/mL), phosphate buffer (0.05 M, pH 7.4), inhibitor (0, 0.1, 1, 10, 100, 1000 or 10000 μM) and ARG (0.1, 2 or 3 mM). Following a 5-min pre-incubation of the potential inhibitor with arginase 1 or arginase 2, reactions were initiated by the addition of a pre-equilibrated solution of the substrate ARG.
Ki values were derived from fitting the competitive inhibition equation to experimental data. Ki data are the mean of three singlicate experiments.

[2] = target: T2, recombinant human arginase 2 (Homo sapiens, UniProt P78540); experiment: Arginase 2 inhibition, UPLC-MS measurement of ARG to ORN conversion in HEK293T cell lysate; settings: for arginase 2 inhibitor assessment in words: at the concentrations tested; for remaining activity at 1 µM / remaining activity at 10 µM / remaining activity at 100 µM / remaining activity at 1000 µM / remaining activity at 10000 µM: read-out: % of control activity at the corresponding [Inhibitor] ± SE, arginase 2; for remaining activity at 1 µM / remaining activity at 10 µM / remaining activity at 100 µM / remaining activity at 1000 µM / remaining activity at 10000 µM / % of control activity at the corresponding [Inhibitor] ± SE: mean of two experiments; for remaining activity at 10000 µM: inhibitor 10,000 µM; for % of control activity at the corresponding [Inhibitor] ± SE: arginase 2;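 on all read-outs here: HEK293T lysate carrying arginase 2 at 0.1 mg/mL in 0.05 M phosphate buffer pH 7.4, inhibitor preincubated with enzyme 5 min before ARG addition started the reaction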
T2 sequence (P78540 23-354): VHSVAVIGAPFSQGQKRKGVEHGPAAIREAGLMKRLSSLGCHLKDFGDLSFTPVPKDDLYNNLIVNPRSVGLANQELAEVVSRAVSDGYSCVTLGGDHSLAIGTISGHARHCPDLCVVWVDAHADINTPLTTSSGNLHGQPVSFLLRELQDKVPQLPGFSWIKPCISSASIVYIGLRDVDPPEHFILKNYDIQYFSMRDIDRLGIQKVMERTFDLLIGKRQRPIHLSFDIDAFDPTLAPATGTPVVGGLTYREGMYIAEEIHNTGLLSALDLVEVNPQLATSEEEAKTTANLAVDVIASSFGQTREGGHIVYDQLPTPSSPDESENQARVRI
Protocol: as §1, §2, §3
Sample were diluted 3:17 in mobile phase solution prior injection.

[3] = target: T1, recombinant human arginase 1; experiment: Arginase 1 activity assay, kinetics of ARG conversion to ORN; format: biochemical; settings: absence vs 0.5 mM manganese chloride
Protocol: Incubation mixtures contained HEK293T cell lysate expressing recombinant human arginase 1 (0.05 mg/mL) or arginase 2 (0.1 mg/mL), phosphate buffer (0.05 M, pH 7.4) and ARG (0 to 15 mM).
as §1, §2
Kinetic data are the mean of three singlicate experiments.

- remaining activity at 1 µM ([1]; ARG 100 µM, inhibitor 1 µM): 115 ± 1%
- remaining activity at 10 µM ([1]; ARG 100 µM, inhibitor 10 µM): 110 ± 1%
- remaining activity at 100 µM ([1]; ARG 100 µM, inhibitor 100 µM): 110 ± 6%
- remaining activity at 1000 µM ([1]; ARG 100 µM, inhibitor 1,000 µM): 104 ± 3%
- remaining activity at 10000 µM ([1]; ARG 100 µM): 54 ± 7%
- remaining activity at 1 µM ([1]; ARG 3 mM, inhibitor 1 µM): 100 ± 1%
- remaining activity at 10 µM ([1]; ARG 3 mM, inhibitor 10 µM): 113 ± 26%
- remaining activity at 100 µM ([1]; ARG 3 mM, inhibitor 100 µM): 106 ± 19%
- remaining activity at 1000 µM ([1]; ARG 3 mM, inhibitor 1,000 µM): 100 ± 17%
- remaining activity at 10000 µM ([1]; ARG 3 mM): 79 ± 20%
- remaining activity at 1 µM ([2]; ARG 100 µM, inhibitor 1 µM): 92 ± 10%
- remaining activity at 10 µM ([2]; ARG 100 µM, inhibitor 10 µM): 99 ± 1%
- remaining activity at 100 µM ([2]; ARG 100 µM, inhibitor 100 µM): 99 ± 2%
- remaining activity at 1000 µM ([2]; ARG 100 µM, inhibitor 1,000 µM): 92 ± 7%
- remaining activity at 10000 µM ([2]; ARG 100 µM): 77 ± 16%
- remaining activity at 1 µM ([2]; ARG 2 mM, inhibitor 1 µM): 98 ± 1%
- remaining activity at 10 µM ([2]; ARG 2 mM, inhibitor 10 µM): 97 ± 7%
- remaining activity at 100 µM ([2]; ARG 2 mM, inhibitor 100 µM): 96 ± 12%
- remaining activity at 1000 µM ([2]; ARG 2 mM, inhibitor 1,000 µM): 98 ± 10%
- remaining activity at 10000 µM ([2]; ARG 2 mM): 75 ± 8%
SMILES: O=C(O)[C@@H]1CCCN1 [PRO, proline]
- arginase 1 inhibitor assessment in words [1]: poor arginase 1 inhibitors; also recorded: no significant inhibition
- arginase 2 inhibitor assessment in words [2]: poor inhibitors; also recorded: no significant inhibition

SMILES: CN=C(NC)NCCC[C@H](N)C(=O)O [SDMA, NG, N′G-dimethyl-L-arginine dihydrochloride]
- % of control activity at the corresponding [Inhibitor] ± SE ([1]; ARG 100 µM, inhibitor 0.1 µM): 96 ± 3%
- % of control activity at the corresponding [Inhibitor] ± SE ([1]; ARG 100 µM, inhibitor 1 µM): 113 ± 22%
- % of control activity at the corresponding [Inhibitor] ± SE ([1]; ARG 100 µM, inhibitor 10 µM): 104 ± 4%
- % of control activity at the corresponding [Inhibitor] ± SE ([1]; ARG 100 µM, inhibitor 100 µM): 106 ± 17%
- % of control activity at the corresponding [Inhibitor] ± SE ([1]; ARG 100 µM, inhibitor 1,000 µM): 69 ± 10%
- % of control activity at the corresponding [Inhibitor] ± SE ([1]; ARG 3 mM, inhibitor 0.1 µM): 113 ± 16%
- % of control activity at the corresponding [Inhibitor] ± SE ([1]; ARG 3 mM, inhibitor 1 µM): 93 ± 5%
- % of control activity at the corresponding [Inhibitor] ± SE ([1]; ARG 3 mM, inhibitor 10 µM): 92 ± 2%
- % of control activity at the corresponding [Inhibitor] ± SE ([1]; ARG 3 mM, inhibitor 100 µM): 84 ± 1%
- % of control activity at the corresponding [Inhibitor] ± SE ([1]; ARG 3 mM, inhibitor 1,000 µM): 73 ± 5%
- arginase 1 inhibitor assessment in words [1]: poor arginase 1 inhibitors
- % of control activity at the corresponding [Inhibitor] ± SE ([2]; ARG 100 µM, inhibitor 0.1 µM): 90 ± 2%
- % of control activity at the corresponding [Inhibitor] ± SE ([2]; ARG 100 µM, inhibitor 1 µM): 96 ± 1%
- % of control activity at the corresponding [Inhibitor] ± SE ([2]; ARG 100 µM, inhibitor 10 µM): 95 ± 3%
- % of control activity at the corresponding [Inhibitor] ± SE ([2]; ARG 100 µM, inhibitor 100 µM): 90 ± 1%
- % of control activity at the corresponding [Inhibitor] ± SE ([2]; ARG 100 µM, inhibitor 1,000 µM): 89 ± 1%
- % of control activity at the corresponding [Inhibitor] ± SE ([2]; ARG 2 mM, inhibitor 0.1 µM): 96 ± 2%
- % of control activity at the corresponding [Inhibitor] ± SE ([2]; ARG 2 mM, inhibitor 1 µM): 100 ± 3%
- % of control activity at the corresponding [Inhibitor] ± SE ([2]; ARG 2 mM, inhibitor 10 µM): 107 ± 1%
- % of control activity at the corresponding [Inhibitor] ± SE ([2]; ARG 2 mM, inhibitor 100 µM): 102 ± 1%
- % of control activity at the corresponding [Inhibitor] ± SE ([2]; ARG 2 mM, inhibitor 1,000 µM): 96 ± 1%
- arginase 2 inhibitor assessment in words [2]: poor arginase inhibitors

SMILES: [Cl][Mn][Cl] [manganese chloride]
- rate of ORN formation higher in absence of manganese supplementation [3]: 20%
